In patent US20240376154A1, “BIS-INTERCALATING PEPTIDES, CONJUGATES AND METHODS OF USE” (ZYMEWORKS BC INC., priority 2023, published 2024) one finds ring closure, isolated yield data, which are given here for 24 substances.

For the data set the following is noted: amide bond; 32-membered ring.
Turning to “Benzyl tert-butyl ((3aS,7R,13aS,22S,26R,32aS)-22-isopropyl-18,21,37-trimethyl-4,8,14,17,20,23,27,33,36,39-decaoxooctatriacontahydro-1H,10H-dipyrido[1,2-a:1′,2′-q]pyrrolo[1,2-j][1,4,7,10,13,17,20,23,26,29]decaazacyclodotriacontine-7,26-diyl)dicarbamate”, the ring closure, isolated yield is 62%.

Substance “Benzyl tert-butyl ((4aS,8R,14aS,23S,27R,33aS)-23-isopropyl-19,22,38-trimethyl-5,9,15,18,21,24,28,34,37,40-decaoxotetracontahydro-11H-tripyrido[1,2-a:1′,2′-j:1″,2″-q][1,4,7,10,13,17,20,23,26,29]decaazacyclodotriacontine-8,27-diyl)dicarbamate” gave a ring closure, isolated yield of 64%.

For the substance “Benzyl tert-butyl ((5aS,9R,15aS,24S,28R,34aS)-24-isopropyl-20,23,39-trimethyl-6,10,16,19,22,25,29,35,38,41-decaoxotetracontahydro-1H,12H-azepino[1,2-j]dipyrido[1,2-a:1′,2′-q][1,4,7,10,13,17,20,23,26,29]decaazacyclodotriacontine-9,28-diyl)dicarbamate”, the ring closure, isolated yield was 22%.

The substance “Benzyl tert-butyl ((7R,8R,11S,19aS,26R,30S,38aS)-11,30-di((S)-sec-butyl)-8,12,15,31,34-pentamethyl-6,10,13,16,19,25,29,32,35,38-decaoxotetratriacontahydro-2H,6H,10H-dipyrido[2,1-b1: 2′,1′-l][1]oxa[4,7,10,13,17,20,23,26,29]nonaazacyclodotriacontine-7,26-diyl)dicarbamate” displayed a ring closure, isolated yield of 71%.

On to “Benzyl tert-butyl ((7R,10aS,22aS,29R,32aS,44aS)-6,10,16,22,28,32,38,44-octaoxotetracontahydro-2H,19H-tetrapyrido[1,2-a1: 1′,2′-d: 1″,2″-k: 1′″,2′″-t][1,17]dioxa[4,7,11,14,20,23,27,30]octaazacyclodotriacontine-7,29-diyl)dicarbamate”, for which the ring closure, isolated yield amounted to 44%.

“Benzyl tert-butyl ((7R,10aS,23aS,30R,33aS,46aS)-19,42-dimethyl-6,10,17,20,23,29,33,40,43,46-decaoxotetratetracontahydro-6H,29H-bis(azepino)[1,2-j:1′,2′-z]dipyrido[1,2-a:1′,2′-q][1,4,7,10,13,17,20,23,26,29]decaazacyclodotriacontine-7,30-diyl)dicarbamate” returned a ring closure, isolated yield of 74%.

In turn, “Benzyl tert-butyl ((7R,11S,19aS,26R,30S,38aS)-11,15,30,34-tetraisopropyl-12,31-dimethyl-6,10,13,16,19,25,29,32,35,38-decaoxohexatriacontahydro-2H,6H-dipyrido[1,2-a:1′,2′-q][1,4,7,10,13,17,20,23,26,29]decaazacyclodotriacontine-7,26-diyl)dicarbamate” showed a ring closure, isolated yield of 94%.

As for “Benzyl tert-butyl ((7R,11S,19aS,26R,30S,38aS)-11,30-di((S)-sec-butyl)-12,15,31,34-tetramethyl-6,10,13,16,19,25,29,32,35,38-decaoxohexatriacontahydro-2H,6H-dipyrido[1,2-a:1′,2′-q][1,4,7,10,13,17,20,23,26,29]decaazacyclodotriacontine-7,26-diyl)dicarbamate”, the ring closure, isolated yield stood at 90%.

On to “Benzyl tert-butyl ((7R,11S,19aS,26R,30S,38aS)-11,30-dicyclohexyl-12,15,31,34-tetramethyl-6,10,13,16,19,25,29,32,35,38-decaoxohexatriacontahydro-2H,6H-dipyrido[1,2-a:1′,2′-q][1,4,7,10,13,17,20,23,26,29]decaazacyclodotriacontine-7,26-diyl)dicarbamate”, for which the ring closure, isolated yield was 72%.

With “Benzyl tert-butyl ((7R,11S,19aS,26R,30S,38aS)-11,30-diisopropyl-12,15,31,34-tetramethyl-6,10,13,16,19,25,29,32,35,38-decaoxohexatriacontahydro-2H,6H-dipyrido[1,2-a:1′,2′-q][1,4,7,10,13,17,20,23,26,29]decaazacyclodotriacontine-7,26-diyl)dicarbamate”, the ring closure, isolated yield was found to be 69%.

For “Benzyl tert-butyl ((7R,11S,19aS,26R,30S,38aS)-11,30-diisopropyl-12,15,31,34-tetramethyl-6,10,13,16,19,25,29,32,35,38-decaoxotetratriacontahydro-2H,6H,10H-dipyrido[2,1-b1: 2′,1′-l][1]oxa[4,7,10,13,17,20,23,26,29]nonaazacyclodotriacontine-7,26-diyl)dicarbamate”, the ring closure, isolated yield was found to be 63%.

“Benzyl tert-butyl ((7R,11S,19aS,26R,30S,38aS)-11,30-diisopropyl-12,31-dimethyl-6,10,13,16,19,25,29,32,35,38-decaoxo-15,34-dipropylhexatriacontahydro-2H,6H-dipyrido[1,2-a:1′,2′-q][1,4,7,10,13,17,20,23,26,29]decaazacyclodotriacontine-7,26-diyl)dicarbamate” registered a ring closure, isolated yield of 85%.

Consider “Benzyl tert-butyl ((7R,11S,19aS,26R,30S,38aS)-11,30-diisopropyl-12,31-dimethyl-6,10,13,16,19,25,29,32,35,38-decaoxohexatriacontahydro-2H,6H-dipyrido[1,2-a:1′,2′-q][1,4,7,10,13,17,20,23,26,29]decaazacyclodotriacontine-7,26-diyl)dicarbamate”, for which the ring closure, isolated yield came out at 53%.

“Benzyl tert-butyl ((7R,11S,19aS,26R,30S,38aS)-11,30-diisopropyl-12,31-dimethyl-6,10,13,19,25,29,32,38-octaoxodotriacontahydro-2H,6H,16H,25H-dipyrido[1,2-a1:1′,2′-k][1,17]dioxa[4,7,11,14,20,23,27,30]octaazacyclodotriacontine-7,26-diyl)dicarbamate” registered a ring closure, isolated yield of 58%.

As to “Benzyl tert-butyl ((7R,11S,19aS,26R,30S,38aS)-11-((S)-sec-butyl)-30-isopropyl-12,15,31,34-tetramethyl-6,10,13,16,19,25,29,32,35,38-decaoxohexatriacontahydro-2H,6H-dipyrido[1,2-a:1′,2′-q][1,4,7,10,13,17,20,23,26,29]decaazacyclodotriacontine-7,26-diyl)dicarbamate”, the ring closure, isolated yield turned out to be 75%.

“Benzyl tert-butyl ((7R,11S,19aS,26R,30S,38aS)-11-cyclohexyl-30-isopropyl-12,15,31,34-tetramethyl-6,10,13,16,19,25,29,32,35,38-decaoxohexatriacontahydro-2H,6H-dipyrido[1,2-a:1′,2′-q][1,4,7,10,13,17,20,23,26,29]decaazacyclodotriacontine-7,26-diyl)dicarbamate”: the ring closure, isolated yield was 58%.

Turning to “Benzyl tert-butyl ((7R,11S,19aS,26R,30S,38aS)-11-isopropyl-12,15,31,34-tetramethyl-6,10,13,16,19,25,29,32,35,38-decaoxo-30-phenylhexatriacontahydro-2H,6H-dipyrido[1,2-a:1′,2′-q][1,4,7,10,13,17,20,23,26,29]decaazacyclodotriacontine-7,26-diyl)dicarbamate”, the ring closure, isolated yield turned out to be 26%.

In turn, “Benzyl tert-butyl ((7R,11S,19aS,26R,30S,38aS)-12,31-diethyl-11,30-diisopropyl-15,34-dimethyl-6,10,13,16,19,25,29,32,35,38-decaoxohexatriacontahydro-2H,6H-dipyrido[1,2-a:1′,2′-q][1,4,7,10,13,17,20,23,26,29]decaazacyclodotriacontine-7,26-diyl)dicarbamate” returned a ring closure, isolated yield of 40%.

“Benzyl tert-butyl ((7R,11S,19aS,26R,30S,38aS)-15,34-diethyl-11,30-diisopropyl-12,31-dimethyl-6,10,13,16,19,25,29,32,35,38-decaoxohexatriacontahydro-2H,6H-dipyrido[1,2-a:1′,2′-q][1,4,7,10,13,17,20,23,26,29]decaazacyclodotriacontine-7,26-diyl)dicarbamate” showed a ring closure, isolated yield of 68%.

On to “Benzyl tert-butyl ((7R,19aS,26R,30S,38aS)-30-isopropyl-11,11,12,15,31,34-hexamethyl-6,10,13,16,19,25,29,32,35,38-decaoxohexatriacontahydro-2H,6H-dipyrido[1,2-a:1′,2′-q][1,4,7,10,13,17,20,23,26,29]decaazacyclodotriacontine-7,26-diyl)dicarbamate”, for which the ring closure, isolated yield is 37%.

In the case of “Benzyl tert-butyl ((7′R,19a'S,26′R,30'S,38a'S)-30′-isopropyl-12′,15′,31′,34′-tetramethyl-6′,10′,13′,16′,19′,25′,29′,32′,35′,38′-decaoxotetratriacontahydro-2′H,6′H,12′H-spiro[cyclobutane-1,11′-dipyrido[1,2-a:1′,2′-q][1,4,7,10,13,17,20,23,26,29]decaazacyclodotriacontine]-7′,26′-diyl)dicarbamate”, the ring closure, isolated yield is 43%.

Turning to “Benzyl tert-butyl ((7′R,19a'S,26′R,30'S,38a'S)-30′-isopropyl-12′,15′,31′,34′-tetramethyl-6′,10′,13′,16′,19′,25′,29′,32′,35′,38′-decaoxotetratriacontahydro-2′H,6′H,12′H-spiro[cyclopropane-1,11′-dipyrido[1,2-a:1′,2′-q][1,4,7,10,13,17,20,23,26,29]decaazacyclodotriacontine]-7′,26′-diyl)dicarbamate”, the ring closure, isolated yield came out at 48%.

For the substance “Benzyl tert-butyl ((13S,16R,19aS,32S,35R,38aS)-13,32-diisopropyl-8,14,27,33-tetramethyl-6,9,12,15,19,25,28,31,34,38-decaoxohexatriacontahydro-2H,6H-dipyrido[2,1-c: 2′,1′-s][1,4,7,10,13,17,20,23,26,29]decaazacyclodotriacontine-16,35-diyl)dicarbamate”, the ring closure, isolated yield worked out at 57%.

“Bis(4-nitrobenzyl) ((7R,11S,19aS,26R,30S,38aS)-11,30-diisopropyl-12,15,31,34-tetramethyl-6,13,16,19,25,32,35,38-octaoxodotriacontahydro-2H,6H,10H,25H-dipyrido[2,1-b1: 2′,1′-l][1,17]dioxa[4,7,10,13,20,23,26,29]octaazacyclodotriacontine-7,26-diyl)dicarbamate”: the ring closure, isolated yield came to 68%.
